We go through one compound from patent publication US11607422B2, “Uttroside B and derivatives thereof as therapeutics for hepatocellular carcinoma” (Rajiv Gandhi Centre for Biotechnology, an Autonomous …, priority 2016, dated 2023).

Data set [1] relates to HepG2 cells. Nature of the data set: Cell cycle analysis by flow cytometry (propidium iodide). The data set is classed as cell-based, human. As to conditions: HepG2, 48 h, all concentrations studied. The method, then:
FIGS. 3A-3F show Uttroside B induces caspase-dependent apoptosis leading to PARP cleavage in HepG2 cells while being independent of cell cycle. FIGS. 3A-3E are images of Western blots showing caspase activation in HepG2 cells. Whole-cell extracts were prepared after treating HepG2 cells with indicated concentrations of Uttroside B for 48 h, the whole cell lysate was resolved on a 15% gel and subjected to western blotting using antibodies against the caspases 8, 9 & 7 detected by ECL. HepG2 cells were treated with Uttroside B for 48 h at different concentrations and the whole cell lysate was resolved on a 10% gel, immunoblotted against anti-PARP and detected by ECL. […] HepG2 cells were treated with Uttroside B for 48 h, stained with propidium iodide and the cell cycle analysis was done using fluorescence activated cell sorter. Curcumin 25 μM (24 h) is used as positive control.
Flow cytometry: Cell cycle analysis helps in distinguishing the distribution of a population of cells to the different stages of the cycle. Cell cycle analysis using flow cytometry was performed to investigate the cell cycle arrest induced by Uttroside B. Cell cycle analysis is performed by quantitative measurement of nuclear DNA content in a cell by staining DNA with propidium iodide. […]
(In flow cytometry, cells or beads pass a laser one at a time.)

The subject of another data set is Swiss albino mice. Nature of the data set: Chronic toxicity study (3 months). The data set is classed as in vivo. The method, then: Swiss albino mice were randomly divided into 2 groups of 6 animals each and were allowed to acclimatize for a week. Group I received vehicle and Group II received 10 mg/Kg body weight of Uttroside B. The compounds were given as intraperitonial injection on alternate days, thrice in a week, for 3 months. The animals were observed frequently during this period after which, the animals were euthanized in a CO2 chamber. The blood serum was collected for analyzing biochemical parameters of liver function, the abnormal values of which are indicative of hepatotoxicity. The liver was fixed in 10% buffered formalin and the thin cryostat sections were stained with haematoxylin and eosin for histopathological evaluation.^9

In a further data set the test system is NF-κB in HepG2 cells. Nature of the data set: Electrophoretic mobility shift assay of NF-κB. The data set is classed as cell-based, human. As to conditions: HepG2 nuclear extract, EMSA. The method, then: Stocks of crude extracts and isolated compound of S. nigrum was prepared in DMSO for the in vitro studies and stored at −20° C. The DMSO concentration in all studies, including controls, was ≤0.2%. Cell viability assay was performed after 72 h of drug treatment while whole cell lysate preparation and cell cycle analysis were done after 24 h and 48 h of drug treatment. For studying NF-κB and AP-1, Uttroside B was incubated for 2 h before extraction.
Radiolabeling of oligonucleotide probes for electrophoretic mobility shift assay:HepG2 Cells were treated with Uttroside B for two hours, scraped and suspended in 150 μL of lysis buffer (10 mM HEPES(pH 7.9), 10 mM KCl, 0.1 mM EDTA, 0.1 mM EGTA, 1 mM DTT, 0.5 mMphenylmethylsulfonyl fluoride, 2 μg/mL leupeptin, 2 μg/mL aprotinin, 0.5 mg/ml benzamidine) for 30 min, after which 4.5 μl of 10% Nonidet P-40 was added. […]
A general note: In EMSA bound probe runs differently from free probe, usually more slowly.

For data set [2], the system named is HepG2 cells. Nature of the data set: Clonogenic assay in HepG2 cells. As to conditions: 72 h treatment, then 1 week. The data set is classed as cell-based, human. The method, then:
FIG. 2A is a graph comparison of IC50 of Uttroside B in a panel of cancer cells of different origin. The cancer cell lines HeLa, A375, HepG2, MDA-MB-231, HL 60, A549 and HCT116 were treated with Uttroside B as indicated, incubated for 72 h and the cell viability was assessed by MTT assay. FIG. 2B is a graph showing dose dependent effect of Uttroside B in the liver cancer cell lines and in normal immortalized hepatocytes. The liver cancer cell lines HepG2, Hep3B, SKHEP-1, Huh-7 and normal hepatocytes (Chang liver), were treated with Uttroside B incubated for 72 h and the cell viability was assessed by MTT assay. FIG. 2C is a graph comparison of IC50 of Uttroside B with sorafenib. HepG2 cells were treated with Uttroside B as indicated, incubated for 72 h, and the cell viability was assessed by MTT assay. FIG. 2D is an image of the morphological changes induced by Uttroside B in HepG2 cells. HepG2 cells were treated with Uttroside B as indicated and incubated for 72 h. FIG. 2E is an image showing Uttroside B inhibits the clonogenic potential of HepG2 cells. HepG2 cells were treated with different concentrations of Uttroside B for 72 h and the clonogenic assay was performed. […] The clones developed were counted and plotted as a graph. Colony containing more than four cells was counted as one clone. […]

Each structure is given as a SMILES string.

As for `C[C@H](CC[C@@]1(O)O[C@H]2C[C@H]3[C@@H]4CC[C@H]5C[C@@H](O[C@@H]6O[C@H](CO)[C@H](O[C@@H]7O[C@H](CO)[C@@H](O)[C@H](O[C@@H]8OC[C@@H](O)[C@H](O)[C@H]8O)[C@H]7O[C@@H]7O[C@H](CO)[C@@H](O)[C@H](O)[C@H]7O)[C@H](O)[C@H]6O)CC[C@]5(C)[C@H]4CC[C@]3(C)[C@H]2[C@@H]1C)CO[C@@H]1O[C@H](CO)[C@@H](O)[C@H](O)[C@H]1O` [Uttroside B], in the data set with HepG2 cells [1], the “effect on cell cycle” value was “did not show any significant effect on cell cycle”. In the data set with Swiss albino mice (10 mg/kg), the “histopathological analysis of liver tissue, chronic” value is on record as “did not manifest any morphological change characteristic of toxicity”. Further, the “total and differential WBC count, serum AST, ALT, ALP and BUN” value with Swiss albino mice (10 mg/kg i.p. thrice weekly, 3 months) was “no significant difference in any of these parameters from their normal range of values”. Also, the “constitutive activation of NF-κB” value with NF-κB in HepG2 cells was “could not produce any significant down-regulation”. Besides, the “anti-clonogenic potential (colonies formed)” value in the data set with HepG2 cells [2] is “drastic dose dependent reduction in both number and size of the colonies formed”.
